How the values were obtained:
[1] = system: HEK-293 (human embryonic kidney cells); experiment: Cell proliferation assay (MTT); assay type: cell-based; conditions: HEK293, 48 h, 2 days incubation, average ± SD of three experiments
From the text: (§1) The ability of Ureas 13–33 to inhibit cell proliferation was established by means of their IC50 values towards the human tumor cell lines HT-29 (colon adenocarcinoma), MCF-7 (breast adenocarcinoma), HeLa (epithelioid cervix carcinoma) and A549 (pulmonary adenocarcinoma), as well as towards the endothelial cell line HMEC-1 (human microvascular endothelial cells) and the non-tumor cell line HEK-293 (human embryonic kidney cells).
(§2) HT-29, MCF-7, HeLa, A549 and HEK-293 cell lines were maintained in Dulbecco’s modified Eagle’s medium (DMEM) containing glucose (1 g/L), glutamine (2 mM), penicillin (50 μg/mL), streptomycin (50 μg/mL), and amphotericin B (1.25 μg/mL), supplemented with 10% FBS. HMEC-1 cell line was maintained in Dulbecco’s modified Eagle’s medium (DMEM)/low glucose containing glutamine (2 mM), penicillin (50 μg/mL), streptomycin (50 μg/mL), and amphotericin B (1.25 μg/mL), supplemented with 10% FBS. For the development of tube formation assays in Matrigel, HMEC-1 cells were cultured in EGM-2MV Medium supplemented with EGM-2MV SingleQuots.
(§3) In 96-well plates, 3 × 10^3 (HeLa, A549, HMEC-1, HEK-293) or 5 × 10^3 (HT-29, MCF-7) cells per well were incubated with serial dilutions of the tested compounds in a total volume of 100 μL of their respective growth media. The 3-(4,5-dimethylthiazol-2-yl)-2,5-diphenyltetrazolium bromide (MTT; Sigma Chemical Co.) dye reduction assay in 96-well microplates was used. After 2 days of incubation (37 °C, 5% CO2 in a humid atmosphere), 10 μL of MTT (5 mg/mL in phosphate-buffered saline, PBS) was added to each well, and the plate was incubated for a further 3 h (37 °C). After that, the supernatant was discarded and replaced by 100 µL of DMSO to dissolve formazan crystals. The absorbance was then read at 540 nm by spectrophotometry. For all concentrations of compound, cell viability was expressed as the percentage of the ratio between the mean absorbance of treated cells and the mean absorbance of untreated cells. Three independent experiments were performed, and the IC50 values (i.e., concentration half inhibiting cell proliferation) were graphically determined using GraphPad Prism 4 software.

[2] = system: HT-29 (colon adenocarcinoma); experiment: Cell proliferation assay (MTT); assay type: cell-based; conditions: Homo sapiens, HT-29, 48 h, 2 days incubation, average ± SD of three experiments
From the text: as §1, §2, §3

[3] = system: A549 (pulmonary adenocarcinoma); experiment: Cell proliferation assay (MTT); assay type: cell-based; conditions: Homo sapiens, A549, 48 h, 2 days incubation, average ± SD of three experiments
From the text: as §1, §2, §3

[4] = system: HMEC-1 (human microvascular endothelial cells); experiment: Cell proliferation assay (MTT); assay type: cell-based; conditions: HMEC-1, 48 h, 2 days incubation, average ± SD of three experiments
From the text: as §1, §2, §3

[5] = system: MCF-7 (breast adenocarcinoma); experiment: Cell proliferation assay (MTT); assay type: cell-based; conditions: Homo sapiens, MCF7, 48 h, 2 days incubation, average ± SD of three experiments
From the text: as §1, §2, §3

[6] = system: HeLa (epithelioid cervix carcinoma); experiment: Cell proliferation assay (MTT); assay type: cell-based; conditions: Homo sapiens, 48 h, 2 days incubation, average ± SD of three experiments
From the text: as §1, §2, §3

[7] = target: T1, PD-L1 (Homo sapiens, UniProt Q9NZQ7); experiment: PD-L1 quantification by flow cytometry in A-549; assay type: cell-based; design: endogenous in cells; host or cells: A-549 cancer cells; conditions: A-549, 10 μM, 24 h, referred to control (DMSO)
T1 sequence (Q9NZQ7 19-290): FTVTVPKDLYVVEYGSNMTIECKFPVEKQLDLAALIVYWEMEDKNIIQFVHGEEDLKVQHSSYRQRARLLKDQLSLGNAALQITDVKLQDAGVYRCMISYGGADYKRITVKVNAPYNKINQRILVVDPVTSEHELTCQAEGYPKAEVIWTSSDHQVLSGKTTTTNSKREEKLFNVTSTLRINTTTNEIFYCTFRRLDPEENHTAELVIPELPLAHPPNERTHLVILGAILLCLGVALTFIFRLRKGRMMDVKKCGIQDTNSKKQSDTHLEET
Method: (§4) We evaluated the effect of the selected compounds on PD-L1 and on c-Myc proteins by flow cytometry after 24 h treatment at 10 μM concentration of compounds. Both, PD-L1 and c-Myc were relatively determined using DMSO treated cells as a negative control and BMS-8 as a positive one.
(§5) For the detection of total PD-L1 and c-Myc, cancer cells were seeded (3 × 10^5 cells/well) in 6-well plates and were incubated with the corresponding compounds for 24 h. Then they were collected, fixed, treated with 0.5% Triton^TM X-100 and stained with Alexa Fluor® 647 Rabbit monoclonal Anti-PD-L1 (ab215251) and FITC Rabbit monoclonal anti-c-Myc (ab223913).
(§6) We also checked results performing ELISA tests. For ELISA tests, lysates were collected, protein quantification was carried out by Bradford test and, then, PD-L1 and c-Myc were quantified using Human PD-L1 ELISA Kit 28-8 (ab214565) and c-Myc (Total) Human ELISA Kit (KHO2041), respectively, according to the manufacturer’s instructions.

[8] = system: c-Myc; experiment: c-Myc quantification by flow cytometry in HT-29; assay type: cell-based, human; conditions: HT-29, 10 μM, 24 h, referred to control (DMSO)
Method: as §4, §5, §6

[9] = target: T1, PD-L1; experiment: PD-L1 quantification by flow cytometry in HT-29; assay type: cell-based; conditions: HT-29, 10 μM, 24 h, referred to control (DMSO)
Method: as §4, §5, §6

[10] = system: c-Myc; experiment: c-Myc quantification by flow cytometry in A-549; assay type: cell-based, human; conditions: A-549, 10 μM, 24 h, referred to control (DMSO)
Method: as §4, §5, §6

[11] = target: T2, VEGFR-2 (Homo sapiens, UniProt P35968); experiment: VEGFR-2 quantification by flow cytometry in HMEC-1; assay type: cell-based; design: Both membrane and total VEGFR-2 were relatively determined using dimethyl sulfoxide (DMSO) treated cells as a negative control; endogenous in cells; host or cells: HMEC-1 (human microvascular endothelial cells); conditions: 10 µM, 24 h, relative to DMSO control
T2 sequence (P35968 20-1356): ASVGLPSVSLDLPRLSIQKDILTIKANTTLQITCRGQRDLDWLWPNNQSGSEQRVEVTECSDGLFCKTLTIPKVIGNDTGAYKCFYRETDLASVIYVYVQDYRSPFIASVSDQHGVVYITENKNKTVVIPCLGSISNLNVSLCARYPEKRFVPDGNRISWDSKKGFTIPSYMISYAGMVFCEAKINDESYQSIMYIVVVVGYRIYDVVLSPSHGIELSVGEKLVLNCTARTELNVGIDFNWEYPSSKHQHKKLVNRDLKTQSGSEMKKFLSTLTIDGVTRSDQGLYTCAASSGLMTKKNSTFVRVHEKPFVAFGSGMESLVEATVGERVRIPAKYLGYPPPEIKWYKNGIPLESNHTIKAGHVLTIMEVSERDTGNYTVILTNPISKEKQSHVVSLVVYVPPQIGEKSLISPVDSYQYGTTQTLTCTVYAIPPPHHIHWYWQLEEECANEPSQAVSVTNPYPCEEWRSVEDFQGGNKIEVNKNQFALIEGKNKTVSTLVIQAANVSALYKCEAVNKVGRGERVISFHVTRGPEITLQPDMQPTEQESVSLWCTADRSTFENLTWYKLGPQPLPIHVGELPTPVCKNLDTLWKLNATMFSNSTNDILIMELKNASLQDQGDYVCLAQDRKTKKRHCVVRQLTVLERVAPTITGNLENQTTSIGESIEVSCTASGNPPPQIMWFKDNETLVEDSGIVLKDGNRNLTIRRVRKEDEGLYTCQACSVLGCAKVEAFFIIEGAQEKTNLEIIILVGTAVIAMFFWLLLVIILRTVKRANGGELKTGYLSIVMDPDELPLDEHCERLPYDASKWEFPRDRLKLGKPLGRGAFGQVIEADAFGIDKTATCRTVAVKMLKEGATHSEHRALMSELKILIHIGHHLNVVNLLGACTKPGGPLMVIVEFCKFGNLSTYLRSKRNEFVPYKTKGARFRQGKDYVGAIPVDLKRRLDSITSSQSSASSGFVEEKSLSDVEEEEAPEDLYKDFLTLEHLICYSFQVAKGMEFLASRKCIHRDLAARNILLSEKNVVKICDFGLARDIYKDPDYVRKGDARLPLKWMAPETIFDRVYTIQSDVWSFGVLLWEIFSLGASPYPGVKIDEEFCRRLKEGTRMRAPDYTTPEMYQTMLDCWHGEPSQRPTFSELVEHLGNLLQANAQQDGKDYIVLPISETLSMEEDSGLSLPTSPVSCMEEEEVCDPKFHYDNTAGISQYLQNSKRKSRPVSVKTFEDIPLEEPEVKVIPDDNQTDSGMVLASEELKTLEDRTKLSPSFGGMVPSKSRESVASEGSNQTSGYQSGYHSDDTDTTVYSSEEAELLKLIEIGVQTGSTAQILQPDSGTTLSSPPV
Method: (§7) We performed the study on both a HT-29 cancer cell line and a human microvessel endothelial cell line (HMEC-1). […] The effect of these selected derivatives on VEGFR-2, on HT-29 tumor cell line and on human microvessel endothelial cells (HMEC) was determined by flow cytometry technique. […] For these assays, cells were incubated for 24 h in the presence of the corresponding compounds at 10 µM concentration.

[12] = target: T2, VEGFR-2; experiment: VEGFR-2 quantification by flow cytometry in HT-29; assay type: cell-based; design: Both membrane and total VEGFR-2 were relatively determined using dimethyl sulfoxide (DMSO) treated cells as a negative control; endogenous in cells; host or cells: HT-29 (colon adenocarcinoma) and HMEC-1 (human microvascular endothelial cells); conditions: HT-29, 10 µM, 24 h, relative to DMSO control
Method: as §7

SMILES: COc1ccc(/C=C\c2cccc(NC(=O)Nc3ccccc3)c2)cc1 [Compound 13]
- IC50 [1]: 16 ± 3 µM
- IC50 [2]: 24 ± 5 µM
- IC50 [3]: 34 ± 2 µM
- IC50 [4]: 40 ± 5 µM
- IC50 [5]: 30 ± 7 µM
- IC50 [6]: 32 ± 8 µM

SMILES: COc1ccc(/C=C\c2cccc(NC(=O)Nc3ccccc3Br)c2)cc1 [Compound 14]
- IC50 [1]: 25 ± 3 µM
- IC50 [2]: 17 ± 2 µM
- IC50 [3]: 32 ± 14 µM
- IC50 [4]: 14 ± 2 µM
- IC50 [5]: 25 ± 10 µM
- IC50 [6]: 26 ± 3 µM

SMILES: COc1ccc(/C=C\c2cccc(NC(=O)Nc3ccccc3OC)c2)cc1 [Compound 17]
- PD-L1 (%) relative expression [7]: 79 ± 9%
- c-Myc (%) relative expression [8]: 58 ± 13%
- PD-L1 (%) relative expression [9]: 60 ± 12%
- IC50 [1]: 27 ± 5 µM
- IC50 [2]: 15 ± 1 µM
- IC50 [3]: 18 ± 1 µM
- IC50 [4]: 10 ± 1 µM
- IC50 [5]: 15 ± 1 µM
- IC50 [6]: 15 ± 2 µM
- c-Myc (%) relative expression [10]: 45± 9%
- Membrane VEGFR-2 (%) [11]: 99 ± 7%
- Total VEGFR-2 (%) [11]: 97 ± 9%
- Membrane VEGFR-2 (%) [12]: 47 ± 16%
- Total VEGFR-2 (%) [12]: 98 ± 12%

SMILES: COc1ccc(/C=C\c2cccc(NC(=O)Nc3cccc(OC)c3)c2)cc1 [Compound 18]
- IC50 [1]: 16 ± 3 µM
- IC50 [2]: 17 ± 4 µM
- IC50 [3]: 23 ± 8 µM
- IC50 [4]: 4.3 ± 0.3 µM
- IC50 [5]: 19 ± 2 µM
- IC50 [6]: 24 ± 5 µM

SMILES: COc1ccc(/C=C\c2cccc(NC(=O)Nc3ccc(OC)cc3)c2)cc1 [Compound 19]
- PD-L1 (%) relative expression [7]: 98 ± 10%
- c-Myc (%) relative expression [8]: 47 ± 8%
- PD-L1 (%) relative expression [9]: 36 ± 9%
- IC50 [1]: 10 ± 1 µM
- IC50 [2]: 14 ± 3 µM
- IC50 [3]: 12 ± 2 µM
- IC50 [4]: 11 ± 1 µM
- IC50 [5]: 8 ± 3 µM
- IC50 [6]: 5 ± 2 µM
- c-Myc (%) relative expression [10]: 79 ± 10%
- Membrane VEGFR-2 (%) [11]: 98 ± 8%
- Total VEGFR-2 (%) [11]: 99 ± 16%
- Membrane VEGFR-2 (%) [12]: 88 ± 14%
- Total VEGFR-2 (%) [12]: 97 ± 7%

SMILES: COc1ccc(/C=C/c2cccc(NC(=O)Nc3ccccc3)c2)cc1 [Compound 20]
- IC50 [1]: 15 ± 2 µM
- IC50 [2]: 2.5 ± 0.8 µM
- IC50 [3]: 1.6 ± 0.3 µM
- IC50 [4]: 4 ± 1 µM
- IC50 [5]: 2.3 ± 0.9 µM
- IC50 [6]: 42 ± 8 µM

SMILES: COc1ccc(/C=C/c2cccc(NC(=O)Nc3ccccc3Br)c2)cc1 [Compound 21]
- IC50 [1]: 2 ± 0.2 µM
- IC50 [2]: 1.6 ± 0.2 µM
- IC50 [3]: 3 ± 1 µM
- IC50 [4]: 1.9 ± 0.4 µM
- IC50 [5]: 1.6 ± 0.3 µM
- IC50 [6]: 1.7 ± 0.4 µM

SMILES: COc1ccc(/C=C/c2cccc(NC(=O)Nc3cccc(Br)c3)c2)cc1 [Compound 22]
- IC50 [1]: 0.7 ± 0.3 µM
- IC50 [2]: 0.5 ± 0.2 µM
- IC50 [3]: 4 ± 3 µM
- IC50 [4]: 1.1 ± 0.2 µM
- IC50 [5]: 0.6 ± 0.3 µM
- IC50 [6]: 1.5 ± 0.3 µM

SMILES: COc1ccc(/C=C/c2cccc(NC(=O)Nc3ccccc3OC)c2)cc1 [Compound 24]
- IC50 [1]: 3.5 ± 0.8 µM
- IC50 [2]: 11 ± 4 µM
- IC50 [3]: 11 ± 5 µM
- IC50 [4]: 7.2 ± 0.6 µM
- IC50 [5]: 3.6 ± 0.6 µM
- IC50 [6]: 9 ± 4 µM

SMILES: COc1ccc(/C=C/c2cccc(NC(=O)Nc3cccc(OC)c3)c2)cc1 [Compound 25]
- PD-L1 (%) relative expression [7]: 59 ± 8%
- c-Myc (%) relative expression [8]: 74 ± 11%
- PD-L1 (%) relative expression [9]: 69 ± 11%
- IC50 [1]: 4 ± 2 µM
- IC50 [2]: 1.3 ± 0.5 µM
- IC50 [3]: 2.2 ± 0.7 µM
- IC50 [4]: 4.3 ± 0.4 µM
- IC50 [5]: 1.1 ± 0.2 µM
- IC50 [6]: 7 ± 0.5 µM
- c-Myc (%) relative expression [10]: 68 ± 9%
- Membrane VEGFR-2 (%) [11]: 59 ± 8%
- Total VEGFR-2 (%) [11]: 96 ± 9%
- Membrane VEGFR-2 (%) [12]: 99 ± 11%
- Total VEGFR-2 (%) [12]: 94 ± 7%

SMILES: COc1ccc(CCc2cccc(NC(=O)Nc3ccccc3)c2)cc1 [Compound 27]
- IC50 [1]: 12.5 ± 0.2 µM
- IC50 [2]: 9.6 ± 0.6 µM
- IC50 [3]: 12 ± 5 µM
- IC50 [4]: 9 ± 4 µM
- IC50 [5]: 12.8 ± 0.9 µM
- IC50 [6]: 10 ± 2 µM

SMILES: COc1ccc(CCc2cccc(NC(=O)Nc3ccccc3Br)c2)cc1 [Compound 28]
- IC50 [1]: 1.7 ± 0.2 µM
- IC50 [2]: 7.9 ± 0.5 µM
- IC50 [3]: 7 ± 4 µM
- IC50 [4]: 5 ± 3 µM
- IC50 [5]: 5 ± 4 µM
- IC50 [6]: 4 ± 3 µM

SMILES: COc1ccc(CCc2cccc(NC(=O)Nc3cccc(Br)c3)c2)cc1 [Compound 29]
- IC50 [1]: 7.2 ± 0.4 µM
- IC50 [2]: 11 ± 2 µM
- IC50 [3]: 13 ± 3 µM
- IC50 [4]: 3.8 ± 0.3 µM
- IC50 [5]: 10 ± 4 µM
- IC50 [6]: 10.7 ± 0.5 µM

SMILES: COc1ccc(CCc2cccc(NC(=O)Nc3ccc(Br)cc3)c2)cc1 [Compound 30]
- IC50 [1]: 1.3 ± 0.5 µM
- IC50 [2]: 4.9 ± 0.8 µM
- IC50 [3]: 11 ± 5 µM
- IC50 [4]: 1.3 ± 0.1 µM
- IC50 [5]: 4 ± 2 µM
- IC50 [6]: 3.7 ± 0.3 µM

SMILES: COc1ccc(CCc2cccc(NC(=O)Nc3ccccc3OC)c2)cc1 [Compound 31]
- IC50 [1]: 13.8 ± 0.8 µM
- IC50 [2]: 57 ± 6 µM
- IC50 [3]: 24 ± 5 µM
- IC50 [4]: > 100 µM
- IC50 [5]: 10 ± 5 µM
- IC50 [6]: 24 ± 2 µM

SMILES: COc1ccc(CCc2cccc(NC(=O)Nc3cccc(OC)c3)c2)cc1 [Compound 32]
- PD-L1 (%) relative expression [7]: 59 ± 9%
- c-Myc (%) relative expression [8]: 69 ± 7%
- PD-L1 (%) relative expression [9]: 55 ± 11%
- IC50 [1]: 9.7 ± 0.8 µM
- IC50 [2]: 22 ± 2 µM
- IC50 [3]: 18 ± 3 µM
- IC50 [4]: 7.1 ± 0.8 µM
- IC50 [5]: 25 ± 4 µM
- IC50 [6]: 27 ± 1 µM
- c-Myc (%) relative expression [10]: 77 ± 15%
- Membrane VEGFR-2 (%) [11]: 69 ± 8%
- Total VEGFR-2 (%) [11]: 98 ± 13%
- Membrane VEGFR-2 (%) [12]: 76 ± 5%
- Total VEGFR-2 (%) [12]: 93 ± 10%

— article PMC8067507, “Aryl Urea Based Scaffolds for Multitarget Drug Discovery in Anticancer Immunotherapies” (Pharmaceuticals, 2021)
